Measured values taken from patent US20250066389A1, “HETEROCYCLIC AMIDES AND METHODS OF USING THE SAME” (Rgenta Therapeutics, Inc., priority 2021, published 2025).

Each compound was assayed on PMS1 (assay: Mini-Gene Reporter Assay—PMS1 (firefly luciferase mini-gene reporter transiently transfected into HEK293 cells)). Details: Homo sapiens; at 5 uM; mini-gene firefly luciferase reporter in HEK293 cells; read-out: PMS1 % Effect at 5 uM.
Format: cell-based
How it was run: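 HEK293 cells transiently transfected with a mini-gene construct (skipped exon with flanking introns/exons fused to firefly luciferase, pcDNA3.1) are incubated with compounds in duplicate. Exon inclusion raises luminescence; EC50 fitted by Levenberg-Marquardt; effect also scored at 5 μM.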
For `CCOc1cc2nn(C)cc2cc1C(=O)Nc1cnc(NCCC2CC3CCC(C2)N3)cn1` (stereo not drawn) [Compound 310], the activation at 5 µM was < 50%. `CCOc1cc2nn(C)cc2cc1C(=O)Nc1cnc(NC(C)CC2CC3CCC(C2)N3)cn1` (stereo not drawn) [Compound 311] was tested, and the activation at 5 µM was < 50%. `CCOc1cc2nn(C)cc2cc1C(=O)Nc1cnc(NC[C@H]2CNCC(C)(C)O2)cn1` [Compound 312] was tested, and the activation at 5 µM was < 50%. With `CCOc1cc2nn(C)cc2cc1C(=O)Nc1cnc(NC2CNCC3(CCC3)C2)cn1` (stereo not drawn) [Compound 313] the activation at 5 µM was < 50%. For `CCOc1cc2nn(C)cc2cc1C(=O)Nc1cnc(N2C3CCCC2CNC3)cn1` [Compound 314], the activation at 5 µM was < 50%. In the case of `CCOc1cc2nn(C)cc2cc1C(=O)Nc1cnc(NC2CCC(C)NC2)cn1` (stereo not drawn) [Compound 315], the activation at 5 µM is reported as < 50%. Compound `CCOc1cc2nn(C)cc2cc1C(=O)Nc1cnc(N2CC(NC)C3(CC3)C2)cn1` (stereo not drawn) [Compound 316] has an activation at 5 µM of 50 to 75%. For `CCOc1cc2nn(C)cc2cc1C(=O)Nc1cnc(N2CCCC(NC)CC2)cn1` (stereo not drawn) [Compound 317], the activation at 5 µM was < 50%. In the case of `CCOc1cc2nn(C)cc2cc1C(=O)Nc1cnc(NCC2CNC(C)C2)cn1` (stereo not drawn) [Compound 318], the activation at 5 µM is reported as < 50%. In the case of `CCOc1cc2nn(C)cc2cc1C(=O)Nc1cnc(NC2CCCNC2C)cn1` (stereo not drawn) [Compound 319], the activation at 5 µM is reported as < 50%. With `CCOc1cc2nn(C)cc2cc1C(=O)Nc1cnc(N2CC34CCCC3(CNC4)C2)cn1` (stereo not drawn) [Compound 320] the activation at 5 µM was < 50%. `CCOc1cc2nn(C)cc2cc1C(=O)Nc1cnc(N2CC(N)CC2C)cn1` (stereo not drawn) [Compound 321] was tested, and the activation at 5 µM was > 75%. For `CCOc1cc2nn(C)cc2cc1C(=O)Nc1cnc(NCC2C3CNCC32)cn1` (stereo not drawn) [Compound 322], the activation at 5 µM was < 50%. For `CCOc1cc2nn(C)cc2cc1C(=O)Nc1cnc(NC2CNCC(C)C2)cn1` (stereo not drawn) [Compound 323], the activation at 5 µM was < 50%. In the case of `CCOc1cc2nn(C)cc2cc1C(=O)Nc1cnc(NC2C=CCNC2)cn1` (stereo not drawn) [Compound 324], the activation at 5 µM is reported as < 50%. For `CCOc1cc2nn(C)cc2cc1C(=O)Nc1cnc(N2[C@H](CN)C[C@@H]3CCC[C@@H]32)cn1` [Compound 325], the activation at 5 µM was < 50%. `CCOc1cc2nn(C)cc2cc1C(=O)Nc1cnc(N2CC(N)C(C)(C)C2)cn1` (stereo not drawn) [Compound 326] was tested, and the activation at 5 µM was > 75%. In the case of `CCOc1cc2nn(C)cc2cc1C(=O)Nc1cnc(NCC[C@@H]2C[C@H](OC)CN2)cn1` [Compound 327], the activation at 5 µM is reported as < 50%. `CCOc1cc2nn(C)cc2cc1C(=O)Nc1cnc(NC(C)CNC)cn1` (stereo not drawn) [Compound 328] was tested, and the activation at 5 µM was < 50%. With `CCOc1cc2nn(C)cc2cc1C(=O)Nc1cnc(NCC2CCC3(CCNCC3)CC2)cn1` [Compound 329] the activation at 5 µM was < 50%. `CCOc1cc2nn(C)cc2cc1C(=O)Nc1cnc(N2CC(CO)C3(CNC3)C2)cn1` (stereo not drawn) [Compound 330] was tested, and the activation at 5 µM was < 50%. In the case of `CCOc1cc2nn(C)cc2cc1C(=O)Nc1cnc(N2CC34CCCCC3(CNC4)C2)cn1` (stereo not drawn) [Compound 331], the activation at 5 µM is reported as < 50%. For `CCOc1cc2nn(C)cc2cc1C(=O)Nc1cnc(N2CCCNC(C)C2)cn1` (stereo not drawn) [Compound 332], the activation at 5 µM was > 75%. `CCOc1cc2nn(C)cc2cc1C(=O)Nc1cnc(NCC[C@H]2CCNC2)cn1` [Compound 333] was tested, and the activation at 5 µM was < 50%. In the case of `CCOc1cc2nn(C)cc2cc1C(=O)Nc1cnc(NCc2ccc(CN3CCNCC3)cc2)cn1` [Compound 334], the activation at 5 µM is reported as < 50%. With `CCOc1cc2nn(C)cc2cc1C(=O)Nc1cnc(NCC2CCNCC2(F)F)cn1` (stereo not drawn) [Compound 335] the activation at 5 µM was < 50%. `CCOc1cc2nn(C)cc2cc1C(=O)Nc1cnc(N2CC3(CNCCO3)C2)cn1` [Compound 337] was tested, and the activation at 5 µM was < 50%. `CCOc1cc2nn(C)cc2cc1C(=O)Nc1cnc(N2CCC(C3CCCN3)CC2)cn1` (stereo not drawn) [Compound 338] was tested, and the activation at 5 µM was > 75%. In the case of `CCOc1cc2nn(C)cc2cc1C(=O)Nc1cnc(N2CCCC(NCCO)C2)cn1` (stereo not drawn) [Compound 339], the activation at 5 µM is reported as > 75%. For `CCOc1cc2nn(C)cc2cc1C(=O)Nc1cnc(N2CCC[C@H]3CNC[C@H]32)cn1` [Compound 340], the activation at 5 µM was 50 to 75%. In the case of `CCOc1cc2nn(C)cc2cc1C(=O)Nc1cnc(N2CCOC3(CCNC3)C2)cn1` (stereo not drawn) [Compound 341], the activation at 5 µM is reported as < 50%. In the case of `CCOc1cc2nn(C)cc2cc1C(=O)Nc1cnc(N2C[C@@H](F)C[C@H]2CNC)cn1` [Compound 342], the activation at 5 µM is reported as < 50%. In the case of `CCOc1cc2nn(C)cc2cc1C(=O)Nc1cnc(N2CCC3(CCCN3)CC2)cn1` [Compound 343], the activation at 5 µM is reported as > 75%. With `CCNCCN(CC)c1cnc(NC(=O)c2cc3cn(C)nc3cc2OCC)cn1` [Compound 344] the activation at 5 µM was < 50%. With `CCOc1cc2nn(C)cc2cc1C(=O)Nc1cnc(NCC2CNCCOC2)cn1` (stereo not drawn) [Compound 347] the activation at 5 µM was < 50%. For `CCOc1cc2nn(C)cc2cc1C(=O)Nc1cnc(NC2CCNCC2C)cn1` (stereo not drawn) [Compound 348], the activation at 5 µM was 50 to 75%. `CCOc1cc2nn(C)cc2cc1C(=O)Nc1cnc(NCC2COCCN2)cn1` (stereo not drawn) [Compound 349] was tested, and the activation at 5 µM was < 50%. `CCOc1cc2nn(C)cc2cc1C(=O)Nc1cnc(N2CCC3(CC2)CNCCO3)cn1` [Compound 350] showed an activation at 5 µM of 50 to 75%. In the case of `CCOc1cc2nn(C)cc2cc1C(=O)Nc1cnc(N2CCCNCC2C)cn1` (stereo not drawn) [Compound 351], the activation at 5 µM is reported as < 50%. With `CCOc1cc2nn(C)cc2cc1C(=O)Nc1cnc(N2CCC3(CCNCC3)C2)cn1` [Compound 352] the activation at 5 µM was > 75%. For `CCOc1cc2nn(C)cc2cc1C(=O)Nc1cnc(N2CCCC(CCN)C2)cn1` (stereo not drawn) [Compound 353], the activation at 5 µM was < 50%. In the case of `CCOc1cc2nn(C)cc2cc1C(=O)Nc1cnc(NCC2CNCCO2)cn1` (stereo not drawn) [Compound 354], the activation at 5 µM is reported as < 50%. In the case of `CCOc1cc2nn(C)cc2cc1C(=O)Nc1cnc(NC2CCNCC2F)cn1` (stereo not drawn) [Compound 355], the activation at 5 µM is reported as > 75%. With `CCOc1cc2nn(C)cc2cc1C(=O)Nc1cnc(NC(C)C2CCNCC2)cn1` (stereo not drawn) [Compound 356] the activation at 5 µM was < 50%. In the case of `CCOc1cc2nn(C)cc2cc1C(=O)Nc1cnc(N2CCOC3(CCNCC3)C2)cn1` [Compound 357], the activation at 5 µM is reported as < 50%. In the case of `CCOc1cc2nn(C)cc2cc1C(=O)Nc1cnc(NCCC2CCCCN2)cn1` (stereo not drawn) [Compound 358], the activation at 5 µM is reported as 50 to 75%. In the case of `CCOc1cc2nn(C)cc2cc1C(=O)Nc1cnc(NC[C@@H]2C[C@H]3CC[C@@H](C2)N3)cn1` [Compound 359], the activation at 5 µM is reported as < 50%. For `CCOc1cc2nn(C)cc2cc1C(=O)Nc1cnc(N2CCN[C@@H](C(C)C)C2)cn1` [Compound 360], the activation at 5 µM was > 75%. In the case of `CCOc1cc2nn(C)cc2cc1C(=O)Nc1cnc(N2CCC(NC)C2)cn1` (stereo not drawn) [Compound 361], the activation at 5 µM is reported as > 75%. For `CCOc1cc2nn(C)cc2cc1C(=O)Nc1cnc(NCCCN2CCNCC2)cn1` [Compound 362], the activation at 5 µM was < 50%. In the case of `CCOc1cc2nn(C)cc2cc1C(=O)Nc1cnc(N2C[C@H]3CNC[C@H]3C2)cn1` [Compound 363], the activation at 5 µM is reported as > 75%. For `CCOc1cc2nn(C)cc2cc1C(=O)Nc1cnc(NC[C@@H]2CCNC2)cn1` [Compound 364], the activation at 5 µM was 50 to 75%. With `CCCNCCNc1cnc(NC(=O)c2cc3cn(C)nc3cc2OCC)cn1` [Compound 365] the activation at 5 µM was > 75%. `CCOc1cc2nn(C)cc2cc1C(=O)Nc1cnc(N[C@@H]2C[C@H]3CC[C@@H](C2)N3)cn1` [Compound 366] was tested, and the activation at 5 µM was > 75%. `CCOc1cc2nn(C)cc2cc1C(=O)Nc1cnc(N[C@H]2C[C@H]3CC[C@@H](C2)N3)cn1` [Compound 367] was tested, and the activation at 5 µM was > 75%. For `CCOc1cc2nn(C)cc2cc1C(=O)Nc1cnc(N2CCNCC2)cn1` [Compound 370], the activation at 5 µM was > 75%. With `CCOc1cc2nn(C)cc2cc1C(=O)Nc1cnc(N2CCC(N)CC2)cn1` [Compound 371] the activation at 5 µM was > 75%. With `CCOc1cc2nn(C)cc2cc1C(=O)Nc1cnc(N2CCC(N)C2)cn1` (stereo not drawn) [Compound 372] the activation at 5 µM was > 75%. With `CCOc1cc2nn(C)cc2cc1C(=O)Nc1cnc(NC2CCNCC2)cn1` [Compound 373] the activation at 5 µM was > 75%. With `CCOc1cc2nn(C)cc2cc1C(=O)Nc1cnc(N2CCNC(C)C2)cn1` (stereo not drawn) [Compound 374] the activation at 5 µM was > 75%. For `CCOc1cc2nn(C)cc2cc1C(=O)Nc1cnc(NC2CCCNC2)cn1` (stereo not drawn) [Compound 375], the activation at 5 µM was 50 to 75%. For `CCOc1cc2nn(C)cc2cc1C(=O)Nc1cnc(N[C@@H]2CCNC2)cn1` [Compound 376], the activation at 5 µM was > 75%. `CCOc1cc2nn(C)cc2cc1C(=O)Nc1cnc(N[C@@H]2CCCNC2)cn1` [Compound 377] showed an activation at 5 µM of 50 to 75%. With `CCOc1cc2nn(C)cc2cc1C(=O)Nc1cnc(NCC2CCCNC2)cn1` (stereo not drawn) [Compound 378] the activation at 5 µM was < 50%. `CCOc1cc2nn(C)cc2cc1C(=O)Nc1cnc(N[C@@H]2CNC[C@H](F)C2)nc1` [Compound 380] was tested, and the activation at 5 µM was < 50%. In the case of `CCOc1cc2nn(C)cc2cc1C(=O)Nc1cnc(NCC(F)C2CCNCC2)nc1` (stereo not drawn) [Compound 381], the activation at 5 µM is reported as < 50%. With `CCOc1cc2nn(C)cc2cc1C(=O)Nc1cnc(N2CCNC(C(F)F)C2)nc1` (stereo not drawn) [Compound 382] the activation at 5 µM was < 50%. For `CCOc1cc2nn(C)cc2cc1C(=O)Nc1cnc(NC2CCC23CNC3)nc1` (stereo not drawn) [Compound 383], the activation at 5 µM was < 50%. With `CCOc1cc2nn(C)cc2cc1C(=O)Nc1cnc(NCC[C@H]2C[C@H](N)C2)nc1` [Compound 384] the activation at 5 µM was < 50%. In the case of `CCOc1cc2nn(C)cc2cc1C(=O)Nc1cnc(NCC2C=CCN2)nc1` (stereo not drawn) [Compound 385], the activation at 5 µM is reported as < 50%. In the case of `CCOc1cc2nn(C)cc2cc1C(=O)Nc1cnc(N[C@@H]2CNC[C@@H](F)C2)nc1` [Compound 386], the activation at 5 µM is reported as < 50%. For `CCOc1cc2nn(C)cc2cc1C(=O)Nc1cnc(NCc2nn(C)c3c2CNCC3)nc1` [Compound 388], the activation at 5 µM was < 50%. For `CCOc1cc2nn(C)cc2cc1C(=O)Nc1cnc(NC[C@H](C)NC)nc1` [Compound 390], the activation at 5 µM was < 50%. In the case of `CCOc1cc2nn(C)cc2cc1C(=O)Nc1cnc(NC[C@H]2C[C@@](F)(CN)C2)nc1` [Compound 391], the activation at 5 µM is reported as < 50%. For `CCOc1cc2nn(C)cc2cc1C(=O)Nc1cnc(NC[C@]2(F)C[C@@H](N)C2)nc1` [Compound 392], the activation at 5 µM was < 50%. In the case of `CCOc1cc2nn(C)cc2cc1C(=O)Nc1cnc(NCc2cc3n(n2)CCNC3)nc1` [Compound 393], the activation at 5 µM is reported as < 50%. For `CCOc1cc2nn(C)cc2cc1C(=O)Nc1cnc(NC[C@H]2CNCC(C)(C)O2)nc1` [Compound 394], the activation at 5 µM was < 50%. With `CCOc1cc2nn(C)cc2cc1C(=O)Nc1cnc(NCC2CCNCCC2(F)F)nc1` (stereo not drawn) [Compound 395] the activation at 5 µM was < 50%.
